Laboratory results reported in ChEMBL document CHEMBL1201862, “PubChem BioAssay data set” (2004).
Where “and” joins values, the source holds several entries; their conditions need not be identical. Equal values may be shown once. Where a name gives a salt, the structure may show the parent alone. Calls of active or inactive are those of the source.

Columns and labels:
[1] = molecular target: Cytochrome P450 2D6 (Homo sapiens, UniProt P10635);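 also: CYP2D6 member of a cytochrome P450 panel assay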
[2] = molecular target: T1, Cytochrome P450 1A2 (Homo sapiens, UniProt P05177);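 also: PubChem cytochrome P450 panel assay, CYP1A2 panel member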
T1 sequence (P05177 whole entry): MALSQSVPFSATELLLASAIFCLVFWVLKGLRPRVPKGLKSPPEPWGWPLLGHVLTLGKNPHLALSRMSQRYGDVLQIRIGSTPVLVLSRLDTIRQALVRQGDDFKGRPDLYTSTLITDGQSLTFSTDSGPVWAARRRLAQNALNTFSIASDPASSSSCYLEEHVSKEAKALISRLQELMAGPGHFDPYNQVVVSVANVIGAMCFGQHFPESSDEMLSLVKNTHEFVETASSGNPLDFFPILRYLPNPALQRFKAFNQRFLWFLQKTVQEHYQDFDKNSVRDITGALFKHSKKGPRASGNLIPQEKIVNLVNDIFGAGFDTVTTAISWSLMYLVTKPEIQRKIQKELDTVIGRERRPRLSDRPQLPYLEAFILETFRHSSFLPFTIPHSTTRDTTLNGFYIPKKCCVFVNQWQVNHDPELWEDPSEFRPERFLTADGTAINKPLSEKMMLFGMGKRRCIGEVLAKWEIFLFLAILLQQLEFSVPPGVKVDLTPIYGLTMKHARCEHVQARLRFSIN

[3] = molecular target: Cytochrome P450 3A4 (Homo sapiens, UniProt P08684);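 also: CYP3A4 tested as one member of a cytochrome P450 panel screen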
[4] = Luminescence Cell-Based Dose Confirmation HTS to Identify Activators of 5'UTR Stem-Loop Driven Alpha-Synuclein mRNA Translation in H4 Neuroglioblastoma Cells. [Related pubchem assays: 1829 (Project Summary), 1814 (Primary HTS)]; format: functional
[5] = Luminescence Cell-Based Dose Response HTS to Identify Activators of Luciferase Translation or Activity in H4 […] Cells. [Related pubchem assays: 1829 (Project Summary), 1814 (Primary HTS)]; format: functional
[6] = system: H4; test: Luminescence Cell-Based Dose Response HTS to Identify Activators of 5'UTR Stem-Loop Driven Prion Protein mRNA Translation in H4 Neuroglioblastoma Cells. [Related pubchem assays: 1829 (Project Summary), 1814 (Primary HTS)]; format: functional; conditions: Homo sapiens
[7] = molecular target: T2, Polyadenylate-binding protein 1 (Homo sapiens, UniProt P11940); test: MLLE binding blockers, Cy5 peptide tracer – biochemical, fluorescence polarization, Cy5-PAM2 peptide, secondary, miRNA deadenylation inhibitor project, dose response (AID 602260); format: functional; conditions: read-out: IC50_Mean
[8] = molecular target: T2, Polyadenylate-binding protein 1; test: MLLE domain peptide-binding blockers, IC50 – biochemical, fluorescence polarization, FITC-PAM2 peptide, dose response (AID 602259); format: functional; conditions: read-out: IC50_Mean
[9] = molecular target: Cytochrome P450 2C9 (Homo sapiens, UniProt P11712)
[10] = system: P388/ADR; test: cells; format: functional; conditions: Mus musculus
[11] = system: SN12K1; test: cells; format: functional; conditions: Homo sapiens
[12] = system: P388; test: cells; format: functional; conditions: Mus musculus

Sequence of Cytochrome P450 2D6 (P10635 whole entry): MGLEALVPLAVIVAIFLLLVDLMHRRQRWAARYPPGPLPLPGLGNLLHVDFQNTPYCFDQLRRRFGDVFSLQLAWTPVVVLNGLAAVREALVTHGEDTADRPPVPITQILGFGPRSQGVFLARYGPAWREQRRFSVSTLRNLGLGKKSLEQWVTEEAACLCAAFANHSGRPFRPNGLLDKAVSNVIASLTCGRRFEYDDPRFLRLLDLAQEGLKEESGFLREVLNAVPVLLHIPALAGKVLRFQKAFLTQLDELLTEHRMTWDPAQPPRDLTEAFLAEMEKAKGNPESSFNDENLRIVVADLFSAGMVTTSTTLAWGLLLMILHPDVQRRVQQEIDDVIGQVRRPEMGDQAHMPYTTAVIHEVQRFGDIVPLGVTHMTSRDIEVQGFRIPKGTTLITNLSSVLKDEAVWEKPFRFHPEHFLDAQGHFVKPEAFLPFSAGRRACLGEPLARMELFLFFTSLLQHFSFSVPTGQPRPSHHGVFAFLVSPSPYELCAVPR
Sequence of Cytochrome P450 2C9 (P11712 whole entry): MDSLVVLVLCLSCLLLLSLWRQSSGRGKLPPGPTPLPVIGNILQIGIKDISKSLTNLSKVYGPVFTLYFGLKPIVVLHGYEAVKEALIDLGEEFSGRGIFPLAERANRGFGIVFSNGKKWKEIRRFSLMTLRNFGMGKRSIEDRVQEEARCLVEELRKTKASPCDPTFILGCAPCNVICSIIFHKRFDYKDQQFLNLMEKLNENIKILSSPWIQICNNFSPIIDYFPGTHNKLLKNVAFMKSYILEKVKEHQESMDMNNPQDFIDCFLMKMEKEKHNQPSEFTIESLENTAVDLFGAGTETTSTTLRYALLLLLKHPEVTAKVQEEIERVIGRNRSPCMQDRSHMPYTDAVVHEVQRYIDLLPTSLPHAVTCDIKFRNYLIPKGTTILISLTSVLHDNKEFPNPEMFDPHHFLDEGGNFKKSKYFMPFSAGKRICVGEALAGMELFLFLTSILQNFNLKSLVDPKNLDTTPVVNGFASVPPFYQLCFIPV
T2 sequence (P11940 whole entry, the tested form may be a part): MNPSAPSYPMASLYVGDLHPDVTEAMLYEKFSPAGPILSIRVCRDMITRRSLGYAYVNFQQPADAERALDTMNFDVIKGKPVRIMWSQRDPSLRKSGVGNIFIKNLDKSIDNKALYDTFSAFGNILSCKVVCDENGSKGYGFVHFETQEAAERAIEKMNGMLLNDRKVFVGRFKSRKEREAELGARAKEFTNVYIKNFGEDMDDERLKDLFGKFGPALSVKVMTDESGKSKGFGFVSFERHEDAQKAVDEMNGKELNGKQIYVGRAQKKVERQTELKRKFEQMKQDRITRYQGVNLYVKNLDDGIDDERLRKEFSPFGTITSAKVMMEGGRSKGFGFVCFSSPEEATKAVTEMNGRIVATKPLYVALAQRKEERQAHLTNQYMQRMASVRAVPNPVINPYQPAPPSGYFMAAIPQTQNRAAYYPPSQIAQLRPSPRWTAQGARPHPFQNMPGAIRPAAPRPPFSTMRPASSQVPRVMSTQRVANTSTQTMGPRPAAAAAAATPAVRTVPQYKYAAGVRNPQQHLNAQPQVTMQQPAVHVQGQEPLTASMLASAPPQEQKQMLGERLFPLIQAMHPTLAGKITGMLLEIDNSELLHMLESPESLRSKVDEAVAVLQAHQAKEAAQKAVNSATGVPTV
Sequence of Cytochrome P450 3A4 (P08684 whole entry): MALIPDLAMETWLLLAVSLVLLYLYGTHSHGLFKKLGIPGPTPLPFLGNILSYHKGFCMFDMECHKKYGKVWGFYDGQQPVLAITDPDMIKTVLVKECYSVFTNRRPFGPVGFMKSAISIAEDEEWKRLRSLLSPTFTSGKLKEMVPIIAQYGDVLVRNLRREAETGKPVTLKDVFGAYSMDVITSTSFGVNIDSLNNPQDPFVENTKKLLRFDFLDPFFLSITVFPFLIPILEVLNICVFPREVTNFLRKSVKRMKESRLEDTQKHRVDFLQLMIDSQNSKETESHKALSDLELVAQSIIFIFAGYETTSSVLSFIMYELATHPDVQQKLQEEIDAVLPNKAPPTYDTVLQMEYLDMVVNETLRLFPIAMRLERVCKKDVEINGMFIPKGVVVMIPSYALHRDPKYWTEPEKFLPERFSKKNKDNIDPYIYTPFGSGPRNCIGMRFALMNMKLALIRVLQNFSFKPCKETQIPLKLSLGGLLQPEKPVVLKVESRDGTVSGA

SMILES | GI50 [10] | GI50 [11] | GI50 [12] | further results
CCC/C=C(\CCC)C(NS(C)(=O)=O)c1ccccc1 (stereo not given) | – | – | – | AC50 [1]: 39.8 µM (inconclusive); AC50 [2]: 25.1 µM (inconclusive); AC50 [3]: 31.6 µM (inconclusive)
COc1cccc(NC(=O)CCC(=O)Nc2ccc3nc(N4CCOCC4)cc(C)c3c2)c1 | – | – | – | EC50 [4]: > 120 µM (not active); EC50 [5]: > 120 µM (not active); EC50 [6]: > 120 µM (not active)
Cc1cc(C)c[n+](-c2[n-]c(=O)sc2C=NNC(=O)c2cccnc2)c1 | – | – | – | IC50 [7]: > 66 µM (inactive); IC50 [8]: 59.7 µM (inactive)
CN(Cc1ccc(Cl)cc1)C(=O)COC(=O)CSc1ccc([N+](=O)[O-])cc1 | – | – | – | IC50 [7]: > 66 µM (inactive); IC50 [8]: > 66 µM (inactive)
C[C@H]1CN(C2CCC(C#N)(c3ccc(F)cc3)CC2)CC[C@@]1(C(=O)O)c1ccccc1 (stereo not given in full) | – | – | – | AC50 [1]: 10 µM (inconclusive)
CCN1CCCCC(=N/O)/C(=N/O)CCCC1 | – | – | – | AC50 [1]: 1.58 µM (inconclusive)
CCNc1ncc2nc(-c3cccs3)c(=O)n(CCC#N)c2n1 | – | – | – | AC50 [9]: 12.6 µM (inconclusive)
NC(=S)Nc1ccc(S(=O)(=O)c2ccc(NC(N)=S)cc2)cc1 | – | – | – | IC50 [7]: > 66 µM (inactive); IC50 [8]: > 66 µM (inactive)
CC1=C(C(=O)N2CCCCCC2)C2(CCC(C)CC2)OC1=O (stereo not given) | – | – | – | AC50 [2]: 0.0158 µM (inconclusive); AC50 [9]: 28.2 µM (inconclusive)
O=C1C=CC2OC(c3ccccc3)C(O)C2O1 (stereo not given) | 1.16 µM (inactive) | 4.6 µM (inactive) | 1.56 µM (inactive) | –
CSCSCC(CO)NC(=O)/C=C\c1c(C)[nH]c(=O)[nH]c1=O (stereo not given) | 57.4 µM (inactive) | 11.1 µM (inactive) | 23.1 µM (inactive) | –
COC(=O)[C@@H](O)[C@](O)(CCC(C)C)C(=O)O[C@@H]1C(OC)=C[C@]23CCCN2CCc2cc4c(cc2[C@H]13)OCO4 | 2.29 µM (inactive) | 0.682 µM (active) | 0.247 µM (active) | –
N/C(=N\O)N/N=C\c1ccccc1O | 1.54 µM (inactive) | 3.91 µM (inactive) | 1.66 µM (inactive) | –
CC(=O)OC1C=C(C=O)C(O)(C=O)C2(C)CCCC(C)(C)C12 (stereo not given) | 0.322 µM (active) | 1.36 µM (inactive) | 0.142 µM (active) | –
O=C1C(Br)=CC2(C=C1Br)CCNC1=C2C2=NCCc3c[nH]c(c32)C1=O | 0.0162 µM (active) | 0.168 µM (active) | 0.0146 µM (active) | –
CCCCCCCCC1=CCC(CN(C)C)C1=O (stereo not given) | 2.92 µM (inactive) | 17.6 µM (inactive) | 4.29 µM (inactive) | –
Oc1ccc(Br)cc1/C=N/n1cnc2ccccc21 | – | – | – | EC50 [4]: 11 µM (active); EC50 [5]: 15.8 µM (active); EC50 [6]: 17.9 µM (active)
C/C(=N/NC(=O)c1ccoc1C)c1ccc(NC(=O)c2ccncc2)cc1 | – | – | – | EC50 [4]: 23.9 µM (active); EC50 [5]: 0.148 µM (inconclusive); EC50 [6]: 0.102 µM (active)
CCSc1nc(COC(=O)NC)c(COC(=O)NC)n1C | > 100 µM (inactive) | > 100 µM (inactive) | 67.6 µM (inactive) | –
CCN(CCCl)CCNc1c2ccccc2nc2ccc(OC)cc12 | 0.29 µM (active) | 0.647 µM (active) | 0.0757 µM (active) | –
CC(=O)N(C)c1ccc(Nc2cc(C)nc3ccc4nc[nH]c4c23)cc1 [ACODAZOLE HYDROCHLORIDE] | 37 µM (inactive) | 4.9 µM (inactive) | 4.5 µM (inactive) | –
CNC(=O)CSP(=S)(OC)OC [DIMETHOATE] | – | – | – | IC50 [7]: > 66 µM (inactive); IC50 [8]: > 66 µM (inactive)
COc1c2occc2c(OC)c2c(=O)cc(C)oc12 [KHELLIN] | – | – | – | AC50 [1]: 10 µM (inconclusive)
CC(C)=CCc1c(O)ccc2ccc(=O)oc12 [OSTHENOL] | 50 µM (inactive) | 59.7 µM (inactive) | 42.7 µM (inactive) | –
NNCCc1ccccc1 [PHENELZINE] | – | – | – | AC50 [9]: 158 nM (inconclusive) and 10 µM (inconclusive)
